Measured values from the supplement of paper PMC10307832.

Tests used:
Assay in all cases: relative viability (nuclei count vs DMSO), 5 days (fraction); higher = more cells survive
NCI-H1650 = test system: NCI-H1650
Method in brief: (§1)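 Lung cancer cell lines were seeded in 1536-well plates and dosed by pin tool the next day, with either a single drug or a fixed anchor-drug dose combined with five library-drug doses (not always all listed) spaced in √10 steps. Five days later, one step fixed the cells and stained their nuclei (final 0.05% Triton X-100, 1% formaldehyde, 1 ug/ml Hoechst), and nuclei were counted on 4× images. Relative viability is the nuclei count in treated wells divided by the count in vehicle wells, and each value is the median of duplicate plates.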

NCI-H727 = test system: NCI-H727
Method in brief: as §1

SW 1573 = test system: SW 1573
Method in brief: as §1

NCI-H1563 = test system: NCI-H1563
Method in brief: as §1

NCI-H23 = test system: NCI-H23
Method in brief: as §1

LCLC-103H = test system: LCLC-103H
Method in brief: as §1

NCI-H650 = test system: NCI-H650
Method in brief: as §1

PC-3 [JPC-3] = test system: PC-3 [JPC-3]
Method in brief: as §1

NCI-H1651 = test system: NCI-H1651
Method in brief: as §1

NCI-H460 = test system: NCI-H460
Method in brief: as §1

RERF-LC-KJ = test system: RERF-LC-KJ
Method in brief: as §1

COR-L23 = test system: COR-L23
Method in brief: as §1

A-427 = test system: A-427
Method in brief: as §1

PC-14 = test system: PC-14
Method in brief: as §1

LU99A = test system: LU99A
Method in brief: as §1

201T = test system: 201T
Method in brief: as §1

LCLC-97TM1 = test system: LCLC-97TM1
Method in brief: as §1

NCI-H838 = test system: NCI-H838
Method in brief: as §1

H3255 = test system: H3255
Method in brief: as §1

NCI-H2347 = test system: NCI-H2347
Method in brief: as §1

C[C@@H]1CN(CC(=O)Nc2ccc3c(c2)Cc2cccc(-c4cc(=O)cc(N5CCOCC5)o4)c2S3)C[C@H](C)O1 + CC(C)C[C@H](NC(=O)[C@H](Cc1ccccc1)NC(=O)c1cnccn1)B(O)O [Bortezomib] (partner 0.002 µM)
relative viability (NCI-H1650; first compound 0.04 µM): 0.221 | relative viability (NCI-H1650; first compound 0.1265 µM): 0.23 | relative viability (NCI-H1650; first compound 0.4 µM): 0.192 | relative viability (NCI-H1650; first compound 4 µM): 0.183 | relative viability (NCI-H727; first compound 0.04 µM): 0.892 | relative viability (NCI-H727; first compound 0.1265 µM): 0.824 | relative viability (NCI-H727; first compound 0.4 µM): 0.804 | relative viability (NCI-H727; first compound 4 µM): 0.878 | relative viability (SW 1573; first compound 0.04 µM): 1.17 | relative viability (SW 1573; first compound 0.1265 µM): 1.15 | relative viability (SW 1573; first compound 0.4 µM): 0.926 | relative viability (SW 1573; first compound 4 µM): 0.976 | relative viability (NCI-H1563; first compound 0.04 µM): 0.89 | relative viability (NCI-H1563; first compound 0.1265 µM): 1.01 | relative viability (NCI-H1563; first compound 0.4 µM): 0.828 | relative viability (NCI-H1563; first compound 4 µM): 0.797 | relative viability (NCI-H23; first compound 0.04 µM): 1.27 | relative viability (NCI-H23; first compound 0.1265 µM): 1.21 | relative viability (NCI-H23; first compound 0.4 µM): 1.03 | relative viability (NCI-H23; first compound 4 µM): 0.991 | relative viability (LCLC-103H; first compound 0.04 µM): 1.19 | relative viability (LCLC-103H; first compound 0.1265 µM): 1.03 | relative viability (LCLC-103H; first compound 0.4 µM): 1.09 | relative viability (LCLC-103H; first compound 4 µM): 0.999 | relative viability (NCI-H650; first compound 0.04 µM): 0.742 | relative viability (NCI-H650; first compound 0.1265 µM): 0.801 | relative viability (NCI-H650; first compound 0.4 µM): 0.761 | relative viability (NCI-H650; first compound 4 µM): 0.552 | relative viability (PC-3 [JPC-3]; first compound 0.04 µM): 0.861 | relative viability (PC-3 [JPC-3]; first compound 0.1265 µM): 0.771 | relative viability (PC-3 [JPC-3]; first compound 0.4 µM): 0.908 | relative viability (PC-3 [JPC-3]; first compound 4 µM): 0.677 | relative viability (NCI-H1651; first compound 0.04 µM): 0.848 | relative viability (NCI-H1651; first compound 0.1265 µM): 0.866 | relative viability (NCI-H1651; first compound 0.4 µM): 0.922 | relative viability (NCI-H1651; first compound 4 µM): 0.976 | relative viability (NCI-H460; first compound 0.04 µM): 1.13 | relative viability (NCI-H460; first compound 0.1265 µM): 1.05 | relative viability (NCI-H460; first compound 0.4 µM): 1.24 | relative viability (NCI-H460; first compound 4 µM): 0.759 | relative viability (RERF-LC-KJ; first compound 0.04 µM): 1.24 | relative viability (RERF-LC-KJ; first compound 0.1265 µM): 1.17 | relative viability (RERF-LC-KJ; first compound 0.4 µM): 1.07 | relative viability (RERF-LC-KJ; first compound 4 µM): 0.998 | relative viability (COR-L23; first compound 0.04 µM): 0.975 | relative viability (COR-L23; first compound 0.1265 µM): 0.996 | relative viability (COR-L23; first compound 0.4 µM): 0.984 | relative viability (COR-L23; first compound 4 µM): 0.795 | relative viability (A-427; first compound 0.04 µM): 1.02 | relative viability (A-427; first compound 0.1265 µM): 0.993 | relative viability (A-427; first compound 0.4 µM): 0.952 | relative viability (A-427; first compound 4 µM): 1.03 | relative viability (PC-14; first compound 0.04 µM): 0.993 | relative viability (PC-14; first compound 0.1265 µM): 0.859 | relative viability (PC-14; first compound 0.4 µM): 0.798 | relative viability (PC-14; first compound 4 µM): 0.664 | relative viability (LU99A; first compound 0.04 µM): 1.11 | relative viability (LU99A; first compound 0.1265 µM): 1.15 | relative viability (LU99A; first compound 0.4 µM): 1.11 | relative viability (LU99A; first compound 4 µM): 1.1 | relative viability (201T; first compound 0.04 µM): 1.12 | relative viability (201T; first compound 0.1265 µM): 1.04 | relative viability (201T; first compound 0.4 µM): 1.16 | relative viability (201T; first compound 4 µM): 1.09 | relative viability (LCLC-97TM1; first compound 0.1265 µM): 0.615 | relative viability (LCLC-97TM1; first compound 0.4 µM): 0.33 | relative viability (LCLC-97TM1; first compound 4 µM): 0.391 | relative viability (NCI-H838; first compound 0.04 µM): 0.715 | relative viability (NCI-H838; first compound 0.1265 µM): 0.689 | relative viability (NCI-H838; first compound 0.4 µM): 0.865 | relative viability (NCI-H838; first compound 4 µM): 0.643 | relative viability (H3255; first compound 0.04 µM): 0.495 | relative viability (H3255; first compound 0.1265 µM): 0.771 | relative viability (H3255; first compound 0.4 µM): 0.534 | relative viability (H3255; first compound 4 µM): 0.582 | relative viability (NCI-H2347; first compound 0.04 µM): 0.923 | relative viability (NCI-H2347; first compound 0.1265 µM): 1.03 | relative viability (NCI-H2347; first compound 0.4 µM): 1.2 | relative viability (NCI-H2347; first compound 4 µM): 0.958
